Source: patent US12521356B2, “Compositions and methods for treating pain, inflammation, infection, malaria, and sepsis” (Duke University, priority 2018, dated 2026)
Where two headings read alike, the source gives them in different places.

Assays:
GPR37 [1] = experiment: Ca2+ imaging (Fluo-4AM) in peritoneal macrophages (pMΦ) from WT and Gpr37−/− mice; format: cell-based, mouse; conditions: GPR37-deficient pMΦ vs WT
Method: (§1) Peritoneal macrophage culture. Peritoneal macrophages were collected by peritoneal lavage with 10 ml warm PBS containing of 1 mM EDTA. Cells were incubated in DMEM supplemented with 10% FBS at 37° C. for 2 h in petri dish and washed with PBS to eliminate non-adherent cells. The adherent cells were used as peritoneal macrophages. Peritoneal macrophages were used after 3 days of culture.
(§2) Calcium imaging. HEK 293 cells, with or without transfection of Gpr37, GPR32, ChemR23 or ALX1 cDNA, were loaded with 5 μM Fura-2AM (Invitrogen) for 1 hour and then were resuspended in normal external buffer (140 NaCl, 5 KCl, 2 CaCl2, 2 MgCl2, 10 HEPES, in mM, titrated to pH 7.4 with NaOH) or external Ca^2+-free buffer (140 NaCl, 2 MgCl2, 5 EGTA, 10 HEPES, in mM, titrated to pH 7.4 with NaOH). Peritoneal macrophages, collected from WT and Gpr37 KO mice, were loaded with 5 μM […] (Invitrogen) for 1 hour and then were resuspended in normal external buffer. Images of the HEK 293 cells and macrophages with the excitation wavelength of 340 nm and 380 nm were captured with a cooled Digital CMOS camera (ORCA-Flash 4.0, Hamamatsu Photonics K.K, Japan). The ratio of fluorescence intensity of the two wavelengths in each experiment was analyzed using MetaFluor (Molecular Devices). The Shutter speed and wavelength was controlled by Lambda DG-4 system (Sutter instrument Co., Novato, CA). Values from each of the experiments were normalized to the baseline ratio of 340/380 nm.
(§3) Next, we conducted GPR37-mediated Ca^2+ imaging in native pMΦ from WT and Gpr37^−/− mice using Fluo-4AM as a Ca^2+ indicator, since this dye works better than Fura-2AM for pMΦ. […] As compared to iCa^2+ increase in GPR37-expressing HEK293 cells, NPD1 trigger a slow-onset but more persistent Ca^2+ response in pMΦ (FIG. 2B and FIG. 2G). A relatively rapid calcium response in HEK293 cells may result from over-expression of GPR37. A sustained iCa^2+ increase in pMΦ may result from the expression of transient receptor potential (TRP) ion channels in these immune cells. It is noteworthy that macrophages express TRPV2 or TRPM2, which are involved in phagocytosis during bacterial infection. […] NPD1-triggered iCa^2+ increase in pMΦ is also Gi-dependent, since PTX blocked this increase (FIG. 2H). For comparison, ATP-evoked iCa^2+ increase was not altered in GPR37-deficient pMΦ (FIG. 2H).

GPR37 [2] = biological target: T1, GPR37 (Homo sapiens, UniProt O15354); experiment: Ca2+ imaging (Fura-2AM) in HEK293 cells transfected with human GPR37 cDNA; format: cell-based; conditions: for effect on NPD1-induced iCa2+ increase: NPD1 30 nM, PTX 1 μg/mL 16 h before, thapsigargin 1 μM 3 min, EGTA 10 mM 3 min; for intracellular Ca2+ (iCa2+) increase: 3 min, GPR37-expressing HEK293 cells
T1 construct: host or cells: HEK293 flip-in cells
T1 sequence (O15354 27-613): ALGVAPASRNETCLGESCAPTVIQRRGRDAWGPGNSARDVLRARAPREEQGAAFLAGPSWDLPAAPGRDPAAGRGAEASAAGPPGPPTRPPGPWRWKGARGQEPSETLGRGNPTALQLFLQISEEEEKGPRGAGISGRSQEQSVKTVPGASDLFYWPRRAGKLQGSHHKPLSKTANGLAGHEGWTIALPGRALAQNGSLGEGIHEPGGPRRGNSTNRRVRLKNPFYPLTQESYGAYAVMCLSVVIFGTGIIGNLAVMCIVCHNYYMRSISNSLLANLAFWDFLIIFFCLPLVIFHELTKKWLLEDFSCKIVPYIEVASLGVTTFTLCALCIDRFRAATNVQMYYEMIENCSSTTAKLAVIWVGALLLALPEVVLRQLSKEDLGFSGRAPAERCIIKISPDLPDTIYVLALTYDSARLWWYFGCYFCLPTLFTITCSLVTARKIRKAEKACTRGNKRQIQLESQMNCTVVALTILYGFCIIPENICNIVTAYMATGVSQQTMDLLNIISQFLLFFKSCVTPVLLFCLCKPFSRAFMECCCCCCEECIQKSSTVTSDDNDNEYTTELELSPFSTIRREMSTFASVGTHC
Method: (§4) HEK cell culture and transfection. HEK293 flip-in cell line was purchased from Duke Cell Culture Facility. Cells were cultured in high glucose (4.5 g/L) Dulbecco's Modified Eagle's Medium containing 10% (v/v) fetal bovine serum (Gibco). Transfection (2 μg cDNA) was performed with Lonza electroporation (Lonza) at 70% confluency and the transfected cells were cultured in the same growth medium for 48 h before use. The hGPR37-V5 pLenti304 plasmids were obtained from DNASU (Tempe, AZ), and hGPR32, hChemR23 and hALX pcDNA3 plasmids were provided by Dr. Serhan from Harvard Medical School, Boston.
as §2
In order to investigate how GPR37 regulates intracellular signaling, we conducted Ca^2+ imaging in HEK293 cells that overexpress GPR37. […] Thus, we hypothesized TX14 and SPM may activate the same receptors and elicit similar intracellular responses. We transfected HEK293 cells with human GPR37 cDNA, loaded these cells with Ca^2+ dye Fura-2AM, and stimulated them with TX14 and various SPMs, using ionomycin (2 μM) as a positive control for Ca^2+ influx (FIG. 2A, FIG. 2B, FIG. 2C).

[3] = test system: peritoneal macrophages (pMΦ); experiment: Phagocytosis assay with fluorescence-labeled zymosan particles in peritoneal macrophages; format: cell-based, mouse
Method: as §1
Phagocytosis assay. The phagocytosis assay was modified from a previously described protocol (Sommer C, and Kress M. NeurosciLett. 2004, 361, 184-187). pHrodo® Red Zymosan Bioparticles (diameter, 3 μm, Thermo scientific, Catalog: P35364) were rinsed and reconstituted in RPMI medium. Particles were centrifuged (1 min at 100 g) onto adherent peritoneal macrophages at a ratio of 10:1 to synchronize binding and internalization. After 30 min incubation at 37° C., non-adherent beads were removed with cold PBS and cells were fixed with 2% formalin. Four optic fields were photographed with epifluorescence microscopy. Quantification of zymosan particles ingested by MΦ was conducted on at least 200 macrophages/condition/well, and triplicates were included for statistical analysis.
We investigated whether iCa^2+ increases would trigger phagocytosis of pathogens such as zymosan by macrophages. Zymosan is a well-studied pathogen and activates TLR2 to trigger inflammation and inflammatory pain in rodents after intraplantar injection. We tested phagocytosis in pMΦ using fluorescence-labeled zymosan particles.

ChemR23 = biological target: T2, ChemR23 (Homo sapiens, UniProt Q99788); experiment: Ca2+ imaging (Fura-2AM) in HEK293 cells transfected with ChemR23 cDNA; format: cell-based; conditions: 1 μM; HEK293 cells expressing ChemR23
T2 construct: host or cells: HEK293 flip-in cells
T2 sequence (Q99788 1-373): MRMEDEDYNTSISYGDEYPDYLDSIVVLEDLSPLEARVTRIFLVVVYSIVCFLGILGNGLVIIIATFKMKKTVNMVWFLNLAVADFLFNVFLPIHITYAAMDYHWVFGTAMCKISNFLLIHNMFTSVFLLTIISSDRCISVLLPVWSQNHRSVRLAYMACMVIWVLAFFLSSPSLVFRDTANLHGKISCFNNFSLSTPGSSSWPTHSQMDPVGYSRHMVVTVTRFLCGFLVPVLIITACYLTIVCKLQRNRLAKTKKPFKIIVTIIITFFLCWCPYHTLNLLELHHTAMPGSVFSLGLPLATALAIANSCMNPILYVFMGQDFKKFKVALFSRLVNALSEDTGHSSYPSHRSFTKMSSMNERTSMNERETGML
Source text: (§5) FIG. 10A-FIG. 10C. Characterization of intracellular Ca^2+ changes in HEK293 cells expressing ChemR23, GPR32, and ALX. Ca^2+ imaging with Fura-2AM indicator showing iCa^2+ levels in HEK293 cells transfected with ChemR23 (FIG. 10A), GPR32 (FIG. 10B), and ALX (FIG. 10C) cDNAs. Note that NPD1 fails to elicit iCa^2+ increase in HEK293 cells expressing ChemR23, GPR32, and ALX. […] ATP is included as a positive control. *P<0.05, compared with baseline n=44˜97 cells from 3 cultures. All the data are expressed as mean±s.e.m.
as §4
as §2, with “Values from each of the experiments were normalized to the baseline ratio of 340/380 nm.” left out

GPR32 = biological target: T3, GPR32 (Homo sapiens, UniProt O75388); experiment: Ca2+ imaging (Fura-2AM) in HEK293 cells transfected with GPR32 cDNA; format: cell-based; conditions: 1 μM; HEK293 cells expressing GPR32
T3 construct: host or cells: HEK293 flip-in cells
T3 sequence (O75388 whole entry): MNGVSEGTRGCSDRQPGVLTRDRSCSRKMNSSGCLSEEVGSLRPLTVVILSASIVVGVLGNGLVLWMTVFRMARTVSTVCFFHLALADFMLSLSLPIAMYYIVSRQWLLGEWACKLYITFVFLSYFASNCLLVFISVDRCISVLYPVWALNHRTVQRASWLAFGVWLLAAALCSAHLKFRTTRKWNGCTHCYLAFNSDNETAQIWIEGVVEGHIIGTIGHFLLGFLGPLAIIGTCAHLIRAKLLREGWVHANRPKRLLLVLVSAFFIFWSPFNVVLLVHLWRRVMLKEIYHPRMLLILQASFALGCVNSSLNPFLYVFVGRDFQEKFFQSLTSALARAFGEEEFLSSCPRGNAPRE
Source text: as §5, §4
as §2, with “Values from each of the experiments were normalized to the baseline ratio of 340/380 nm.” left out

ALX = biological target: T4, ALX (Homo sapiens, UniProt P25090); experiment: Ca2+ imaging (Fura-2AM) in HEK293 cells transfected with ALX cDNA; format: cell-based; conditions: HEK293 cells expressing ALX
T4 construct: host or cells: HEK293 flip-in cells
T4 sequence (P25090 1-351): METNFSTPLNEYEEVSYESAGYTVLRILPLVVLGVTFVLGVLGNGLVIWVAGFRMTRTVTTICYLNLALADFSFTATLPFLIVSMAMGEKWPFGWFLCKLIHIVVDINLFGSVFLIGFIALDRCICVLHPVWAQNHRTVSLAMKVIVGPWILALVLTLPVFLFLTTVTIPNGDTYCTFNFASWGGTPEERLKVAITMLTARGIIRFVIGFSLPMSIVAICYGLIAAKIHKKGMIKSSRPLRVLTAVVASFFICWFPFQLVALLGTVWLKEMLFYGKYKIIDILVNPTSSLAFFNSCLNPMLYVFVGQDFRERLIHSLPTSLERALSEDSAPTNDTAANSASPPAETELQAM
Source text: as §5, §4, §2
Several SPM receptors have been identified such as ChemR23 for RvE1, GPR32 for RvD1, and ALX for lipoxin A. We transfected human cDNAs of ChemR23, GPR32, and ALX in HEK293 cells and checked Ca^2+ responses following the treatment of each SPM.

GPR37 [4] = biological target: T5, GPR37 (Mus musculus, UniProt Q9QY42); experiment: Ca2+ imaging (Fluo-4AM) in peritoneal macrophages (pMΦ) from WT and Gpr37−/− mice; format: cell-based; conditions: PTX 1 μg/mL, 16 h; pMΦ
T5 sequence (Q9QY42 27-600): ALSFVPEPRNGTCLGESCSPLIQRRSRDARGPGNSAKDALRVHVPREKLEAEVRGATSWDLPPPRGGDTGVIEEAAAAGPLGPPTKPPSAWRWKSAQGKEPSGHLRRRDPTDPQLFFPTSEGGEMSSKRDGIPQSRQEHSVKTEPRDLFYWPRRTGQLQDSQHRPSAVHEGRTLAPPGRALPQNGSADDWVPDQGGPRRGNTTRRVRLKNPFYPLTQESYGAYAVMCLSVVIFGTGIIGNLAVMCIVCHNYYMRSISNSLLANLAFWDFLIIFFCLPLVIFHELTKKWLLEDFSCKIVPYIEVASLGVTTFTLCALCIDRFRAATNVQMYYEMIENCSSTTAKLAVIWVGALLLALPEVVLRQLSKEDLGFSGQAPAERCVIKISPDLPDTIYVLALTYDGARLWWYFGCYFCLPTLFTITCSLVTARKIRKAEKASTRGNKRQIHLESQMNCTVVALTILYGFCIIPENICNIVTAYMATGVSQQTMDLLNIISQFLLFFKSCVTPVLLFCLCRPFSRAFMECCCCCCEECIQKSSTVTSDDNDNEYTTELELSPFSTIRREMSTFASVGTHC
Method: as §1, §2, §3

[5] = LY294002 50 μM, U0126 10 μM, PTX 1 μg/mL, BAPTA-AM 10 μM

## Nc1ncnc2c1ncn2[C@@H]1O[C@H](COP(=O)(O)OP(=O)(O)OP(=O)(O)O)[C@@H](O)[C@H]1O [ATP]
GPR37 [1]
  ATP-evoked iCa2+ increase: not altered

## CC(=O)OCOC(=O)CN(CC(=O)OCOC(C)=O)c1ccccc1OCCOc1ccccc1N(CC(=O)OCOC(C)=O)CC(=O)OCOC(C)=O [BAPTA-AM]
GPR37 [2]
  effect on NPD1-induced iCa2+ increase: inhibited
[3]; BAPTA-AM 10 μM
  effect on baseline phagocytosis: blocked
[3]; [5]
  effect on NPD1-induced phagocytosis: blocked

## O=C(O)CN(CCOCCOCCN(CC(=O)O)CC(=O)O)CC(=O)O [EGTA]
GPR37 [2]
  effect on NPD1-induced iCa2+ increase: inhibited

## CC/C=C\C/C=C\C/C=C\C/C=C\C/C=C\CCCC(=O)O [EPA]
ChemR23
  Ca2+ response: fail to evoke Ca^2+ responses
GPR32
  Ca2+ response: fail to evoke Ca^2+ responses
GPR37 [2]; 1 μM
  intracellular Ca2+ (iCa2+) increase: Neither did the precursors of these SPMs (DHA and EPA), at a much higher concentration (1 μM), evoked calcium responses
ALX; 1 μM
  Ca2+ response: fail to evoke Ca^2+ responses

## CC/C=C\C[C@H](O)[C@H](O)/C=C/C=C/C=C\C=C\[C@@H](O)C/C=C\CCC(=O)O [RvD2]
GPR37 [2]; 100 nM
  intracellular Ca2+ (iCa2+) increase: failed to increase iCa^2+

## N#CC(=C(/N)Sc1ccccc1N)/C(C#N)=C(\N)Sc1ccccc1N [U0126]
[3]
  effect on NPD1-induced phagocytosis: inhibited

## C[C@H](CCC(=O)O)C[C@H](C)C[C@H](C)C(=O)/C=C(\O)[C@H](C)C[C@H](C)C/C=C/[C@@H](C)[C@@H](O)[C@@H](C)[C@@H](O)C[C@@H]1CC[C@@](C)([C@H]2CC[C@@](C)([C@@H](C)O)O2)O1 [ionomycin]
[3]; 2 μM, both WT and Gpr37 KO mice
  phagocytosis: markedly increased phagocytosis

## CCCCC[C@H](O)/C=C/C=C\C=C\C=C\[C@@H](O)[C@@H](O)CCCC(=O)O [lipoxin A1]
GPR37 [2]; 100 nM
  intracellular Ca2+ (iCa2+) increase: failed to increase iCa^2+
ALX
  iCa2+ increase / Ca2+ response: failed to evoke Ca^2+ responses

## C/C=C(/C)C(=O)O[C@H]1C(C)=C2[C@H]([C@@H]1OC(=O)CCCCCCC)[C@@](C)(OC(C)=O)C[C@H](OC(=O)CCC)[C@@]1(O)[C@H]2OC(=O)[C@@]1(C)O [thapsigargin]
GPR37 [2]
  effect on NPD1-induced iCa2+ increase: inhibited

## Annexin 1: SPM ligand for ALX, from Anaspec (AMVSEFLKQAWFIENEEQEYVQTVK)
ALX; 100 nM
  Ca2+ response: fail to evoke Ca^2+ responses

## pertussis toxin
GPR37 [2]
  effect on NPD1-induced iCa2+ increase: completely blocked
[3]; [5]
  effect on NPD1-induced phagocytosis: inhibited
GPR37 [4]
  effect on NPD1-triggered iCa2+ increase: blocked
